Test results taken from article PMC11724075, “Small-molecule-induced ERBB4 activation to treat heart failure” (Nature Communications, 2025).
Several values for one entry are separate records, joined by “and”; a condition that tells them apart may be missing. Equal values may be shown once. Each block holds one compound with its values, some of them ahead of it.

How the values were obtained:
[1] = test system: HCFs; assay: RT-qPCR on signaling pathway genes in HCFs; format: cell-based, human; conditions: single replicates
Description: RNA was extracted using Nucleospin RNA XS (Macherey-Nagel, 740902.50) according to the manufacturer’s instructions. For cDNA synthesis, total RNA was added to a mixture containing buffer with random hexamers and reverse transcriptase enzyme (TaqMan reverse transcription reagents, Applied biosystems, N8080234) after which samples were incubated for 10 min at 25 °C, 30 min at 48 °C, and 5 min at 95 °C. RT-qPCR was performed on QuantStudio 3 Real-time PCR system (Applied Biosystems) using Taqman Universal PCR Master Mix (Applied Biosystems, 4304437) and Taqman primers according to the manufacturer’s instructions. Settings were as follows: […] followed by 10 min at 95 °C, 40 cycles (45 cycles for ERBB4) of denaturation at 95 °C for 15 s, and 1 min at 60 °C. All reactions were run in duplicate, and all data were normalized against housekeeping genes glyceraldehyde-3-phosphate dehydrogenase (GAPDH), beta-actin (ACTB), or phosphoglycerate kinase 1 (PGK1). Expression levels were calculated using the comparative cycle method and expressed as fold change (FC) to appropriate controls. The following TaqMan primers were used (Thermo Fisher Scientific): GAPDH (Hs02758991_g1, Mm99999915_g1 and Rn01775763_g1), PGK1 (Hs99999906_m1), ID2 (Hs04187239_m1), BMPR1B (Hs01010965_m1), CACNA2D4 (Hs00297782_m1), DUSP2 (Hs00358879_m1), NR4A1 (Hs00374226_m1), SGK1 (Hs00178612_m1), COL1A1 (Mm00801666_g1), COL3A1 (Hs00943809_m1 and Mm00802305_g1), ERBB4 (Hs00955525_m1 and Rn00572447_m1), ACTB (Mm02619580_g1) and ANP (Mm01255747_g1).

[2] = test system: iAMs; assay: EdU proliferation assay in proliferating iAMs; format: cell-based, rat; conditions: for EdU-positive nuclei compared to the vehicle group (in words): EF-1 32 µM or NRG1 0.1 µM, 24 h; for In vitro EdU-positive cell count: individual replicates
Description: EdU proliferation assay was performed using the Click-iT^TM EdU Cell Proliferation Kit for Imaging (ThermoFisher Scientific, C10337) following the protocol. Proliferating iAMs were seeded at a density of 10^5 cells/well in proliferating medium in 24-well plates and incubated overnight. […] Afterwards, the cell culture media were then replaced with 10 µM EdU in proliferating medium and incubated for 24 h at 37 °C. Next, iAMs were fixed with 4% PFA for 30 min at 4 °C. Cells were washed thrice with PBS, permeabilized by incubation with 0.1% Triton X-100 for 10 min at RT and counterstained with DAPI. Images were obtained by fluorescence microscopy (Celena S).

[3] = biological target: T1, ERBB4/ERBB4 (Homo sapiens, UniProt Q15303); assay: NRG1 dose-response in ERBB4/ERBB4 dimerization assay with co-administration of EF-1; format: cell-based
T1 construct: host or cells: U2OS (osteosarcoma cells), PathHunter engineered line
T1 sequence (Q15303 26-1308): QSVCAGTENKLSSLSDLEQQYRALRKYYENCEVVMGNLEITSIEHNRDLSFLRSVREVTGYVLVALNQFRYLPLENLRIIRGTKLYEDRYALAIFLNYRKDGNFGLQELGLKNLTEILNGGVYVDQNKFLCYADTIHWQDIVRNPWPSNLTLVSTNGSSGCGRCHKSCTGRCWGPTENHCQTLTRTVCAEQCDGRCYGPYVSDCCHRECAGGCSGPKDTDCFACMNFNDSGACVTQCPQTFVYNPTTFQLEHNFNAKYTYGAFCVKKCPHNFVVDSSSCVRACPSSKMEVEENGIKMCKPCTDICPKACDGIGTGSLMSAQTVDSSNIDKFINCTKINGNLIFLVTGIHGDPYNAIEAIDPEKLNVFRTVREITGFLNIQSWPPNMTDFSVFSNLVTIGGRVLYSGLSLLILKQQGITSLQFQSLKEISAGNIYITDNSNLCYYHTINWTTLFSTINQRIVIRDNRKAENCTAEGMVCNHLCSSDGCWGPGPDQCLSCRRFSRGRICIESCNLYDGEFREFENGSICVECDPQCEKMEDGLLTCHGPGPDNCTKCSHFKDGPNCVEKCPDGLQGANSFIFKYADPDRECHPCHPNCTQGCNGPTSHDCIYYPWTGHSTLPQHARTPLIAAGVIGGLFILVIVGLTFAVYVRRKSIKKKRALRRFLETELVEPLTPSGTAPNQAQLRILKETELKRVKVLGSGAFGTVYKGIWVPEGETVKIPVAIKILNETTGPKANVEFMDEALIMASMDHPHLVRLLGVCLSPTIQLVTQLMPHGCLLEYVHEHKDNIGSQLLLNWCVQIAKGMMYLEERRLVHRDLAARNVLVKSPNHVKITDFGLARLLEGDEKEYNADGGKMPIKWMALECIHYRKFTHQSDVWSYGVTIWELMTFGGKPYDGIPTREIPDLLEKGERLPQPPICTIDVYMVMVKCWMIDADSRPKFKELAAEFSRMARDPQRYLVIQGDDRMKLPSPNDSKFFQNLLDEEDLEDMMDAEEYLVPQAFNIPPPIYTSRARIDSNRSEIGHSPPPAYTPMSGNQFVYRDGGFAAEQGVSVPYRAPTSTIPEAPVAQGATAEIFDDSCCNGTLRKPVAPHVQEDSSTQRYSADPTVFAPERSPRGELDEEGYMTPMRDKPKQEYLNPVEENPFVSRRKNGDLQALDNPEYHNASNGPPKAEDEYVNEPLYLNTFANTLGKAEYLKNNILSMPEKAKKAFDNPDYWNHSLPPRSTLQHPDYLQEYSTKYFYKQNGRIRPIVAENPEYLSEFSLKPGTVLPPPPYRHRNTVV
T1 sequence (Q15303 26-1308): as above
Description: U2OS ERBB4/ERBB4 dimerization cells were seeded at a density of 5 × 10^4 cells/well in 100 µL Cell Plating 0 Reagent, in white 96-well plates (PerkinElmer, 6005680) and incubated for 24 h at 37 °C, 5% CO2. […] Next, 110 µL PathHunter Flash Detection Reagent was added to each well and incubated at RT for 1 h after which the luminescence signal was measured using the Luminoskan Ascent (Thermo Fisher Scientific). Dose-response curves of the compounds were performed in 2-fold (0.0625–32 µM). The same experimental set-up was used for the U2OS ERBB2/ERBB4, U2OS ERBB2/ERBB3 and U2OS ERBB1/ERBB1 dimerization cell lines. […]
(b) DRC showing t he effect of NRG1 (full line with full circle) on the […]
1x10-6 M NRG1; n=5 biological replicates for NRG1 + EF -1 10 µM for all concentrations of NRG1, except […]
concentrations of NRG1, except n=2 for 3x10-7 M and 1x10-6 M NRG1). All data are presented as mean ± SD. Source data are provided as a Source Data file . CPD, compound; DRC; dose response curve; FC, fold change; F-NRG1, fluorescent ly labeled NRG1; M, molar concentration; NRG1, neuregulin-1; Veh, […]

[4] = test system: iAMs; assay: TUNEL assay in H2O2-treated iAMs; format: cell-based, rat; parameters: In vitro TUNEL assay: unit not given here
Description: To assess apoptosis, a TUNEL assay was performed using the In Situ Cell Death Detection Kit, Fluorescein (Merck, 11684795910) according to the manufacturer’s instructions. After the 4-h incubation, the cells were fixed with 4% paraformaldehyde for 15 min at room temperature, followed by permeabilization with 0.1% Triton X-100 in 0.1% sodium citrate for 2 min on ice. Cells were then incubated with the TUNEL reaction mixture in a humidified chamber at 37 °C for 1 h in the dark. After washing with PBS, the samples were analyzed using fluorescence microscopy to detect apoptotic cells. […]
1 on TUNEL staining (red).
positive cells (n=7 biological replicates in Veh group, n=9 biological replicates for H2O2/Veh group, n=11 […]

Compound: O=C(NC1CC1)C(Sc1nc2ccccc2c(=O)n1C1CCCC1)c1ccccc1 (stereo not shown) [EF-1]
- BMPR1B mRNA, normalized FC compared to vehicle [1]: 0.7674 and 0.7715 and 0.7478 and 0.6131
- CACNA2D4 mRNA, normalized FC compared to vehicle [1]: 0.6726 and 0.5139 and 0.5641 and 0.6199
- DUSP2 mRNA, normalized FC compared to vehicle [1]: 0.652 and 0.6672 and 0.8266 and 0.7945
- ID2 mRNA, normalized FC compared to vehicle [1]: 0.7995 and 0.6935 and 0.711 and 0.7833
- NR4A1 mRNA, normalized FC compared to vehicle [1]: 0.6281 and 0.8412 and 0.7864 and 0.7806
- SGK1 mRNA, normalized FC compared to vehicle [1]: 0.5165 and 0.6795 and 0.6992 and 0.5618
- EdU-positive nuclei compared to the vehicle group (in words) [2]: significant decrease in EdU-positive nuclei
- In vitro EdU-positive cell count [2]: 0.7127 and 0.7822 and 0.8185 and 0.7982 and 0.7621
- Chemiluminescence-based competition assay with NRG1 and EF-1, signal ([3]; EF-1 1 µM, NRG1 1e-11 M): 0
- Chemiluminescence-based competition assay with NRG1 and EF-1, signal ([3]; EF-1 1 µM, NRG1 3e-7 M): 96.5132 and 159.12 and 135.867 and 151.14
- Chemiluminescence-based competition assay with NRG1 and EF-1, signal ([3]; EF-1 1 µM, NRG1 1e-6 M): 151.834 and 150.068 and 166.317
- Chemiluminescence-based competition assay with NRG1 and EF-1, signal ([3]; EF-1 10 µM, NRG1 1e-11 M): 0
- Chemiluminescence-based competition assay with NRG1 and EF-1, signal ([3]; EF-1 10 µM, NRG1 3e-7 M): 204.858 and 319.881 and 318.093 and 238.507
- Chemiluminescence-based competition assay with NRG1 and EF-1, signal ([3]; EF-1 10 µM, NRG1 1e-6 M): 299.545
- potentiation of NRG1-induced ERBB4 homodimerization ([3]; EF-1 32 µM): 299.5%
- Chemiluminescence-based competition assay with NRG1 and EF-1, signal ([3]; EF-1 32 µM, NRG1 1e-11 M): 0
- Chemiluminescence-based competition assay with NRG1 and EF-1, signal ([3]; EF-1 32 µM, NRG1 1e-7 M): 179.706 and 213.306 and 260.377 and 233.656 and 250.186
- Chemiluminescence-based competition assay with NRG1 and EF-1, signal ([3]; EF-1 32 µM, NRG1 3e-7 M): 277.077 and 253.156
- Chemiluminescence-based competition assay with NRG1 and EF-1, signal ([3]; EF-1 32 µM, NRG1 1e-6 M): 257.842 and 279.551
- half-life with mouse microsomes: 15 min
- number of TUNEL-positive (apoptotic) cells (in words) ([4]; 100 µM H2O2): significantly reduced this number
- In vitro TUNEL assay ([4]; H2O2/EF-1, individual replicates): 23.25 and 37.594 and 36.981 and 17.145 and 24.708 and 40.03 and 14.87 and 23.901 and 20.679 and 24.2124 and 24.656

- Chemiluminescence-based competition assay with NRG1 and EF-1, signal ([3]; NRG1 1e-11 M, no EF-1): 0
Compound: neuregulin-1 [NRG1]
- BMPR1B mRNA, normalized FC compared to vehicle [1]: 0.8467 and 0.8788 and 0.6722 and 0.547
- CACNA2D4 mRNA, normalized FC compared to vehicle [1]: 0.587 and 0.7244 and 0.5309 and 0.2575
- DUSP2 mRNA, normalized FC compared to vehicle [1]: 0.9928 and 0.6481 and 0.6778 and 0.7386
- ID2 mRNA, normalized FC compared to vehicle [1]: 0.8573 and 0.8679 and 0.8306 and 0.7992
- NR4A1 mRNA, normalized FC compared to vehicle [1]: 0.5297 and 0.9275 and 0.7063 and 0.8111
- SGK1 mRNA, normalized FC compared to vehicle [1]: 0.7797 and 0.9219 and 0.8239 and 0.6521
- EdU-positive nuclei compared to the vehicle group (in words) [2]: significant decrease in EdU-positive nuclei
- In vitro EdU-positive cell count [2]: 0.7207 and 0.8932 and 0.8227 and 0.7581 and 0.7231
- Chemiluminescence-based competition assay with NRG1 and EF-1, signal ([3]; NRG1 1e-7 M, no EF-1): 101.055 and 98.9454 and 97.307 and 102.693 and 100 and 86.6131 and 109.42
- Chemiluminescence-based competition assay with NRG1 and EF-1, signal ([3]; NRG1 3e-7 M, no EF-1): 95.7195 and 99.6882 and 104.291 and 93.5081 and 90.5392 and 120.599 and 107.787
- Chemiluminescence-based competition assay with NRG1 and EF-1, signal ([3]; NRG1 1e-6 M, no EF-1): 99.5216 and 99.741 and 109.693 and 98.1524
